Publication PMC3598914, “In Vivo Detection of Human TRPV6-Rich Tumors with Anti-Cancer Peptides Derived from Soricidin” (PLoS ONE, 2013)
“Also recorded” adds a separate entry of the source. Residues, ends and D or L forms follow the SMILES beside them.

Tests used:
[1] = target: T1, human TRPV6 channels (Homo sapiens, UniProt Q9H1D0); assay: whole-cell patch clamp of TRPV6/EGFP transfected HEK-293 cells; type: cell-based; conditions: for reduction of TRPV6 current amplitude / reduction of maximum TRPV6 current amplitude: p<0.05; for Kd: washout not possible under voltage ramp stimulation, Kd estimated, read-out: K1 (Kd estimated to be equal to K1); for reduction of maximum TRPV6 current amplitude: n = 5, successive exposures
T1 construct: containing cDNA for the protein-coding region of TRPV6; expressed in transfected cells; host or cells: HEK-293 cells transiently transfected with pdi-CaT-L (pCAGGS backbone, gift of V. Flockerzi)
T1 sequence (Q9H1D0 41-765 limits assumed): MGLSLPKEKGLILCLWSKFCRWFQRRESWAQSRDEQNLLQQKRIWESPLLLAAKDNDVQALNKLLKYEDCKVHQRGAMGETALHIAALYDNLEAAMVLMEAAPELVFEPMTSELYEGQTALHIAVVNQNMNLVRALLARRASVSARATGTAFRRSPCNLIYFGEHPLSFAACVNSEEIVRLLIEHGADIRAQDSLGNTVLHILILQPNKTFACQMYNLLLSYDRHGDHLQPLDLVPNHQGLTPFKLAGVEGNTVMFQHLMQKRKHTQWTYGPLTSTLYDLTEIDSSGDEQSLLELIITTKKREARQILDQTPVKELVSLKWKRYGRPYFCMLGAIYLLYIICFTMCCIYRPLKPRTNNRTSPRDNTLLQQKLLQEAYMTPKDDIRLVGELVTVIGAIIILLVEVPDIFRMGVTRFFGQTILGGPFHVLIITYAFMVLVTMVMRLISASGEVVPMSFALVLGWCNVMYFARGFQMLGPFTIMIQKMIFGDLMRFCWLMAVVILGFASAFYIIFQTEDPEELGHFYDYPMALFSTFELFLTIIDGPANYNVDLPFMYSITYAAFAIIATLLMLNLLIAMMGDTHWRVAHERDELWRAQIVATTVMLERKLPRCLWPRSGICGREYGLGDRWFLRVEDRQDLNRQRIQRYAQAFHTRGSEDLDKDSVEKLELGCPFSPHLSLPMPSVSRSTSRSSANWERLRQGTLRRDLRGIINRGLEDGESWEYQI
Experimental: Human HEK-293 cells (6–9 passages) were plated in a 24-well plate at a density of 5×10^5 cells per well, 24 hours before transfection. Each well was diluted in serum-free medium and incubated for 5 minutes at room temperature then combined slowly and incubated at room temperature. After a 20 minute incubation, cells were exposed to the transfection complex consisting of 0.5 µg of pdi-CaT-L plasmid DNA (a gift from Dr. V. Flockerzi, Experimentelle und Klinische Pharmakologie und Toxikologie der Universität des Saarlandes) and 1.5 µl lipofectamine 2000 reagent. pdi-CaT-L is a bicistronic expression vector containing cDNA for the protein-coding region of TRPV6 and the mutated Green Fluorescent Protein (S65T; EGPF) separated by an […] (β-actin promoter /KOZAK/TRPV6/IRES/EGFP in pCAGGS). The IRES was derived from encephalomyocarditis virus. Transfection of HEK-293 cells with the bicistronic vector allows for simultaneous production of TRPV6 and EGFP and selection of fluorescent cells producing TRPV6 for the electrophysiology measurements. From previous investigations using this plasmid and other similar plasmids, it was determined that the TRPV6 channel is highly expressed, localized at the membrane surface, glycosylated and constitutively active giving rise to a Ca^2+-invoked inward current [33]–[35].
Whole-cell patch clamp recordings were performed on HEK-293 cells expressing TRPV6 and EGFP. Transfected cells were readily identified from non-transfected cells using a fluorescent Axiovert 135 microscope […]. The recordings were performed using an Axopatch 1D amplifier controlled and monitored using pClamp 9 software (MDS Analytical Technologies, Sunnyvale, CA, USA). Data sets were digitized at 20 kHz and filtered at 2 kHz. […] The extracellular solution contained: 145 mM NaCl, 10 mM CsCl, 10 mM CaCl2, 2 mM MgCl2, 2.8 mM KCl, 10 mM HEPES and 10 mM glucose with pH adjusted to 7.2 using NaOH.
To isolate TRPV6 currents, HEK-293 and transfected HEK-293 cells were voltage-clamped at +50 mV with a 50 ms linear voltage ramp (−110 mV to +90 mV) protocol applied in the presence or absence of a TRPV6 inhibitor, La^3+ ions (10 µM), SOR-C27, SOR-C13 or SOR-C27-Cy5.5. Although the La^3+ ion is a non-specific inhibitor there is currently no known selective inhibitor of the TRPV6 channel. The ramp was averaged over 10 times at 2 s intervals between ramps.
Analysis was performed off-line using IGOR (WaveMetrics Inc., Lake Oswego, OR, USA) software. The statistical significance was determined with paired Students' t-test (two-tailed). All values are expressed as mean ± SEM with a p-value of <0.05 considered significant.

[2] = solubility in NMR samples; type: physicochemical; conditions: 10 mM in 90/10 H2O/D2O, 50 mM potassium phosphate pH 6.6; with 200 mM NaCl; with 100 mM DPC; 2 mM with 100 mM SDS; visual statement, 274 to 308 K
Experimental: Nuclear magnetic resonance (NMR) spectroscopic data was acquired to determine the conformational structural features of the SOR-C27 peptide under various conditions. A stock solution (sample #1) of 10 mM SOR-C27 was prepared in 90/10 H2O/D2O with 50 mM potassium phosphate buffer at pH 6.6. From sample #1, three additional samples were prepared: #2) stock solution with 200 mM NaCl, #3) stock solution with 100 mM dodecylphosphocholine (DPC) and #4) stock solution diluted to 2 mM with 100 mM sodium dodecylsulfate (SDS).

[3] = system: HEK-293 cells transfected with TRPV6; conditions: low doses; cited from earlier work
Text: (§1) The link between tumor growth and over-expression of TRPV6 may involve the potentiation of calcium-dependent cell proliferation and inhibition of apoptosis. […] In the LNCaP prostate cancer cell line, up-regulation of TRPV6 augments proliferation and cell survival while retarding apoptosis through a mechanism that appears to involve activation of the nuclear factor of activated T-cell (NFAT) transcription ...

[4] = system: TRPV6; conditions: breast cancer cells; cited from earlier work
Text: as §1

[5] = Table 1; no reference given; cited from earlier work
Text: Table 1 Amino acid sequences of parent soricidin (accession number P0C2P6), SOR-C27 and SOR-C13. | column: Activity

[6] = system: TRPV6 channels; conditions: cited from earlier work
Text: Herein, we described the TRPV6 binding properties of SOR-C13 and SOR-C27 and the ability of these peptides to target human ovarian tumors in ...

[7] = target: T2, SOR-C27 (soricidin C-terminal peptide) (Blarina brevicauda); assay: whole-cell patch clamp
T2 chain: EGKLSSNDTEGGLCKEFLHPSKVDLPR

[8] = target: T3, SOR-C13 (soricidin C-terminal peptide) (Blarina brevicauda); assay: whole-cell patch clamp
T3 chain: KEFLHPSKVDLPR

CC(C)C[C@H](NC(=O)[C@H](Cc1ccccc1)NC(=O)[C@H](CCC(=O)O)NC(=O)[C@@H](N)CCCCN)C(=O)N[C@@H](Cc1c[nH]cn1)C(=O)N1CCC[C@H]1C(=O)N[C@@H](CO)C(=O)N[C@@H](CCCCN)C(=O)N[C@H](C(=O)N[C@@H](CC(=O)O)C(=O)N[C@@H](CC(C)C)C(=O)N1CCC[C@H]1C(=O)N[C@@H](CCCNC(=N)N)C(=O)O)C(C)C [SOR-C13] (H-KEFLHPSKVDLPR-OH)
reduction of TRPV6 current amplitude ([1]; 83.5 nM, n = 9, mean ± SEM): 18±4.0%
reduction of TRPV6 current amplitude ([1]; 417.5 nM, n = 9, mean ± SEM): 22±4%
reduction of TRPV6 current amplitude ([1]; 835 nM, n = 7, mean ± SEM): 24±4%
reduction of TRPV6 current amplitude ([1]; 25 µM, n = 7, mean ± SEM): 25±5%

CC(C)C[C@H](NC(=O)[C@H](Cc1ccccc1)NC(=O)[C@H](CCC(=O)O)NC(=O)[C@@H](N)CCCCN)C(=O)N[C@@H](Cc1cnc[nH]1)C(=O)N1CCC[C@H]1C(=O)N[C@@H](CO)C(=O)N[C@@H](CCCCN)C(=O)N[C@H](C(=O)N[C@@H](CC(=O)O)C(=O)N[C@@H](CC(C)C)C(=O)N1CCC[C@H]1C(=O)N[C@@H](CCCNC(=N)N)C(=O)O)C(C)C [SOR-C13] (H-KEFLHPSKVDLPR-OH)
Kd [1]: 14 ± 1.3 nM

CC(C)C[C@H](NC(=O)CNC(=O)CNC(=O)[C@H](CCC(=O)O)NC(=O)[C@@H](NC(=O)[C@H](CC(=O)O)NC(=O)[C@H](CC(N)=O)NC(=O)[C@H](CO)NC(=O)[C@H](CO)NC(=O)[C@H](CC(C)C)NC(=O)[C@H](CCCCN)NC(=O)CNC(=O)[C@@H](N)CCC(=O)O)[C@@H](C)O)C(=O)N[C@@H](CS)C(=O)N[C@@H](CCCCN)C(=O)N[C@@H](CCC(=O)O)C(=O)N[C@@H](Cc1ccccc1)C(=O)N[C@@H](CC(C)C)C(=O)N[C@@H](Cc1c[nH]cn1)C(=O)N1CCC[C@H]1C(=O)N[C@@H](CO)C(=O)N[C@@H](CCCCN)C(=O)N[C@H](C(=O)N[C@@H](CC(=O)O)C(=O)N[C@@H](CC(C)C)C(=O)N1CCC[C@H]1C(=O)N[C@@H](CCCNC(=N)N)C(=O)O)C(C)C [SOR-C27] (H-EGKLSSNDTEGGLCKEFLHPSKVDLPR-OH)
solubility [2]: completely soluble in all solutions and under all conditions
reduction of maximum TRPV6 current amplitude ([1]; 65.2 nM, mean ± SEM): 17±4%
reduction of maximum TRPV6 current amplitude ([1]; 326 nM, mean ± SEM): 27±5%
reduction of maximum TRPV6 current amplitude ([1]; 652 nM, mean ± SEM): 31±5%
reduction of maximum TRPV6 current amplitude ([1]; 20 µM, mean ± SEM): 34±5%
Kd [1]: 65 ± 1 nM
IC50 ([1]; whole-cell patch clamp, 50 ms voltage ramp -110 to +90 mV, dose-response curve, mean ± SEM, b62/b63, read-out: IC50 (Kd) for reduction of TRPV6 current amplitude): 65 ± 1 nM

Clc1ccc(COC(Cn2ccnc2)c2ccc(Cl)cc2Cl)cc1 (stereo not drawn) [econazole]
effect on calcium inflow signals and cell proliferation [3]: reduced both calcium inflow signals and cell proliferation

CC/C(=C(\c1ccccc1)c1ccc(OCCN(C)C)cc1)c1ccccc1 [tamoxifen]
effect on TRPV6 expression and calcium signaling [4]: reduces expression of TRPV6 and calcium signaling

DCSQDCAACSILARPAELNTETCILECEGKLSSNDTEGGLCKEFLHPSKVDLPR [Soricidin]
Activity [5]: Pain/ Cancer
inhibition of TRPV6 calcium channels / calcium uptake [6]: found to inhibit the transient receptor potential of vallinoid type 6 (TRPV6) calcium channels; also recorded: inhibit calcium uptake via TRPV6 channels

B1: TRPV6 (protein)
chain: MGPLQGDGGPALGGADVAPRLSPVRVWPRPQAPKEPALHPMGLSLPKEKGLILCLWSKFCRWFQRRESWAQSRDEQNLLQQKRIWESPLLLAAKDNDVQALNKLLKYEDCKVHQRGAMGETALHIAALYDNLEAAMVLMEAAPELVFEPMTSELYEGQTALHIAVVNQNMNLVRALLARRASVSARATGTAFRRSPCNLIYFGEHPLSFAACVNSEEIVRLLIEHGADIRAQDSLGNTVLHILILQPNKTFACQMYNLLLSYDRHGDHLQPLDLVPNHQGLTPFKLAGVEGNTVMFQHLMQKRKHTQWTYGPLTSTLYDLTEIDSSGDEQSLLELIITTKKREARQILDQTPVKELVSLKWKRYGRPYFCMLGAIYLLYIICFTMCCIYRPLKPRTNNRTSPRDNTLLQQKLLQEAYMTPKDDIRLVGELVTVIGAIIILLVEVPDIFRMGVTRFFGQTILGGPFHVLIITYAFMVLVTMVMRLISASGEVVPMSFALVLGWCNVMYFARGFQMLGPFTIMIQKMIFGDLMRFCWLMAVVILGFASAFYIIFQTEDPEELGHFYDYPMALFSTFELFLTIIDGPANYNVDLPFMYSITYAAFAIIATLLMLNLLIAMMGDTHWRVAHERDELWRAQIVATTVMLERKLPRCLWPRSGICGREYGLGDRWFLRVEDRQDLNRQRIQRYAQAFHTRGSEDLDKDSVEKLELGCPFSPHLSLPMPSVSRSTSRSSANWERLRQGTLRRDLRGIINRGLEDGESWEYQI
Kd [7]: 65 nM
Kd [8]: 14 nM
